# Experimental data reported in ChEMBL document CHEMBL3885881, “DrugMatrix”.
# Organism: Rattus norvegicus
# Test: DrugMatrix - Regimen: Daily Repeat
# Type: toxicity, organism-based, Sprague-Dawley
# Set-up: regimen Daily Repeat, gender Male, age 6-8 weeks
# Conditions: in vivo, po, 0 mg/kg, route oral GAVAGE, dose level Control, vehicle .5 % CMC; for ABSOLUTE BASOPHIL / ABSOLUTE EOSINOPHIL / ABSOLUTE LYMPHOCYTE / ABSOLUTE MONOCYTE / ABSOLUTE SEGMENTED NEUTROPHIL / BASOPHIL / EOSINOPHIL / ERYTHROCYTE COUNT / HEMATOCRIT / HEMOGLOBIN / LEUKOCYTE COUNT / LYMPHOCYTE / MEAN CORPUSCULAR HEMOGLOBIN / MEAN CORPUSCULAR HEMOGLOBIN CONCENTRATION / MEAN CORPUSCULAR VOLUME / MONOCYTE / NEUTROPHIL / NUCLEATED RED BLOOD CELLS / PLATELET COUNT: tissue Blood; for ALANINE AMINOTRANSFERASE / ALBUMIN / ALKALINE PHOSPHATASE / ASPARTATE AMINOTRANSFERASE / BLOOD UREA NITROGEN / CARBON DIOXIDE / CHLORIDE / CHOLESTEROL / CREATINE PHOSPHOKINASE / CREATININE / GLUCOSE / LACTATE DEHYDROGENASE / LIPASE / PHOSPHORUS / POTASSIUM / SODIUM / TOTAL BILIRUBIN / TOTAL PROTEIN / URIC ACID: tissue Plasma
smiles,measurement,setting,value
COc1ccccc1OCC(O)COC(N)=O (stereo unspecified) [METHOCARBAMOL],ABSOLUTE BASOPHIL,"72 h, time 3 day",0 CELLS/uL
same,ABSOLUTE EOSINOPHIL,"72 h, time 3 day",171.33 CELLS/uL
same,ABSOLUTE LYMPHOCYTE,"72 h, time 3 day",13776.5 CELLS/uL
same,ABSOLUTE MONOCYTE,"72 h, time 3 day",180.83 CELLS/uL
same,ABSOLUTE SEGMENTED NEUTROPHIL,"72 h, time 3 day",1121.33 CELLS/uL
same,BASOPHIL,"72 h, time 3 day",0%
same,EOSINOPHIL,"72 h, time 3 day",1%
same,ERYTHROCYTE COUNT,"72 h, time 3 day",5.56 x10E6/uL
same,HEMATOCRIT,"72 h, time 3 day",34.75%
same,HEMOGLOBIN,"72 h, time 3 day",13.68 G/DL
same,LEUKOCYTE COUNT,"72 h, time 3 day",15.25 x10E3/uL
same,LYMPHOCYTE,"72 h, time 3 day",90.17%
same,MEAN CORPUSCULAR HEMOGLOBIN,"72 h, time 3 day",24.6 pg
same,MEAN CORPUSCULAR HEMOGLOBIN CONCENTRATION,"72 h, time 3 day",39.4 G/DL
same,MEAN CORPUSCULAR VOLUME,"72 h, time 3 day",62.48 fL
same,MONOCYTE,"72 h, time 3 day",1.17%
same,NEUTROPHIL,"72 h, time 3 day",7.67%
same,NUCLEATED RED BLOOD CELLS,"72 h, time 3 day",0 /100WBC
same,PLATELET COUNT,"72 h, time 3 day",1342 x10E3/uL
same,ALANINE AMINOTRANSFERASE,"72 h, time 3 day",49.67 u/L
same,ALBUMIN,"72 h, time 3 day",4.15 G/DL
same,ALKALINE PHOSPHATASE,"72 h, time 3 day",346.83 u/L
same,ASPARTATE AMINOTRANSFERASE,"72 h, time 3 day",108.17 u/L
same,BLOOD UREA NITROGEN,"72 h, time 3 day",17.33 mg/dL
same,CARBON DIOXIDE,"72 h, time 3 day",25 mmol/L
same,CHLORIDE,"72 h, time 3 day",100.83 MEQ/L
same,CHOLESTEROL,"72 h, time 3 day",66.83 mg/dL
same,CREATINE PHOSPHOKINASE,"72 h, time 3 day",788 u/L
same,CREATININE,"72 h, time 3 day",0.18 mg/dL
same,GLUCOSE,"72 h, time 3 day",151.67 mg/dL
same,LACTATE DEHYDROGENASE,"72 h, time 3 day",982.5 u/L
same,LIPASE,"72 h, time 3 day",10.33 u/L
same,PHOSPHORUS,"72 h, time 3 day",11.23 mg/dL
same,POTASSIUM,"72 h, time 3 day",6.37 MEQ/L
same,SODIUM,"72 h, time 3 day",141.02 MEQ/L
same,TOTAL BILIRUBIN,"72 h, time 3 day",0.18 mg/dL
same,TOTAL PROTEIN,"72 h, time 3 day",5.9 G/DL
same,URIC ACID,"72 h, time 3 day",1.8 mg/dL
same,ABSOLUTE BASOPHIL,"120 h, time 5 day",0 CELLS/uL
same,ABSOLUTE EOSINOPHIL,"120 h, time 5 day",69 CELLS/uL
same,ABSOLUTE LYMPHOCYTE,"120 h, time 5 day",13632.83 CELLS/uL
same,ABSOLUTE MONOCYTE,"120 h, time 5 day",139.83 CELLS/uL
same,ABSOLUTE SEGMENTED NEUTROPHIL,"120 h, time 5 day",1225 CELLS/uL
same,BASOPHIL,"120 h, time 5 day",0%
same,EOSINOPHIL,"120 h, time 5 day",0.33%
same,ERYTHROCYTE COUNT,"120 h, time 5 day",5.52 x10E6/uL
same,HEMATOCRIT,"120 h, time 5 day",33.98%
same,HEMOGLOBIN,"120 h, time 5 day",13.22 G/DL
same,LEUKOCYTE COUNT,"120 h, time 5 day",15.07 x10E3/uL
same,LYMPHOCYTE,"120 h, time 5 day",90.83%
same,MEAN CORPUSCULAR HEMOGLOBIN,"120 h, time 5 day",23.95 pg
same,MEAN CORPUSCULAR HEMOGLOBIN CONCENTRATION,"120 h, time 5 day",38.9 G/DL
same,MEAN CORPUSCULAR VOLUME,"120 h, time 5 day",61.53 fL
same,MONOCYTE,"120 h, time 5 day",0.83%
same,NEUTROPHIL,"120 h, time 5 day",8%
same,NUCLEATED RED BLOOD CELLS,"120 h, time 5 day",0 /100WBC
same,PLATELET COUNT,"120 h, time 5 day",1196 x10E3/uL
same,ALANINE AMINOTRANSFERASE,"120 h, time 5 day",49.17 u/L
same,ALBUMIN,"120 h, time 5 day",4.2 G/DL
same,ALKALINE PHOSPHATASE,"120 h, time 5 day",352.33 u/L
same,ASPARTATE AMINOTRANSFERASE,"120 h, time 5 day",89.67 u/L
same,BLOOD UREA NITROGEN,"120 h, time 5 day",18 mg/dL
same,CARBON DIOXIDE,"120 h, time 5 day",27.67 mmol/L
same,CHLORIDE,"120 h, time 5 day",101 MEQ/L
same,CHOLESTEROL,"120 h, time 5 day",72.83 mg/dL
same,CREATINE PHOSPHOKINASE,"120 h, time 5 day",417.5 u/L
same,CREATININE,"120 h, time 5 day",0.18 mg/dL
same,GLUCOSE,"120 h, time 5 day",150.5 mg/dL
same,LACTATE DEHYDROGENASE,"120 h, time 5 day",517.33 u/L
same,LIPASE,"120 h, time 5 day",9 u/L
same,PHOSPHORUS,"120 h, time 5 day",11.87 mg/dL
same,POTASSIUM,"120 h, time 5 day",6.57 MEQ/L
same,SODIUM,"120 h, time 5 day",143.62 MEQ/L
same,TOTAL BILIRUBIN,"120 h, time 5 day",0.2 mg/dL
same,TOTAL PROTEIN,"120 h, time 5 day",6.08 G/DL
same,URIC ACID,"120 h, time 5 day",1.45 mg/dL
